In US7169756B2, “Streptogramin antibiotics” (priority 2005, dated 2007):
Bridge positions count the residues as written; N and C are the ends. Square brackets hold non-standard residues; d marks the D form. Peptide text beside a SMILES is read from it. * marks the point of attachment. Picolinoyl(3-OH) = O=C(c1ncccc1O)*; Phg = N[CH](C(=O)O)c1ccccc1; Abu = CC[CH](N)C(=O)O; Dap = NC[CH](N)C(=O)O

Tests used:
[1] = system: E. coli BAS901/pUC19; assay: disk assay, zone of growth inhibition; type: cell-based, Escherichia coli
Source text: (§1) A hyperpermeable E. coli strain, E. coli BAS901, harboring a plasmid constitutively expressing Vgb was created for in vivo studies. The plasmids pVGB, described previously in [14], and […] were digested with Xbal and BamHI, to yield an approximately 1 kb fragment containing a ribosomal binding site upstream of vgb, and linearized pUC19 backbone, respectively. The vgb fragment was then subcloned into the linearized pUC19 backbone downstream of pLac yielding pUC19-VGB. Both pUC19-VGB and pUC19 were transformed E. coli BAS901.
(§2) The antibiotic activity of the peptides synthesized in this study was initially assayed using a disk assay where samples were applied to sterile paper disks placed on a fresh lawn of bacterial culture on appropriate agar plates as required by the organism. These were then incubated for 16 hr at 37° C. and the zone of growth inhibition surrounding the disks recorded. For quantitative assessment of antibiotic activity in liquid culture, the minimal inhibitory concentration (MIC) of peptides was determined by serial dilution studies. The peptides and standard antibiotics were dissolved in DMSO and the final concentration of DMSO in the liquid cultures was 5%. Both S. aureus RN4220 and E. coli BAS901 were able to grow efficiently at this level of DMSO.
(§3) Crude material from the initial synthesis reactions was used to test the potential of the analogues as antibiotics in susceptibility assays where a solution of the compound was placed on a paper disk on a lawn of bacteria. As described above, E. coli BAS901 is deficient in the Imp/OstA protein, an outer membrane protein, involved in cell envelope biogenesis (1, 5). […] The antibiotic activity of the peptides synthesized in this study was initially assayed using a disk assay where samples were applied to sterile paper disks placed on a fresh lawn of bacterial culture on Tryptic Soya, Luria Broth, or Brain Heart Infusion Agar plates. These were then incubated for 16 hrs at 37° C. and the zone of growth inhibition surrounding the disks recorded.

[2] = system: E. coli BAS901/pUCVgb; assay: disk assay, zone of growth inhibition; type: cell-based, Escherichia coli; settings: Vgb constitutively expressed
Source text: as §1, §2, §3

[3] = system: in vitro translation; assay: In Vitro Translation Assay; type: biochemical; settings: FIG. 6; 15 min preincubation, 1 hr at 37° C., 5% DMSO; concentration not given
Protocol: Inhibition of translation was monitored using an ActivePro In Vitro Translation Kit from Ambion. Briefly, a reaction mixture was prepared as per the manufacturer's instructions that contained all of the constituents necessary (including [^35S]-methionine) except for DNA template. These mixtures were then preincubated for 15 min at room temperature in the presence or absence of various antibiotics. Subsequent to the preincubation period, a control template containing a chloramphenicol acetyltransferase gene under control of a bacteriophage T7 promoter was added and the reaction carried out for 1 hr at 37° C. Due to the insoluble nature of some of the antibiotics, the final DMSO concentration in each reaction including controls was maintained at 5% (v/v). Aliquots were taken after 1 hr, and separated on SDS polyacrylamide gels. The efficiency of translation of ^35S-labeled […] was analyzed and quantified using a Typhoon 9200 variable mode imager (Image-Quant 5.2 software).

[4] = system: Human red blood cells; assay: Hemolysis Assay; type: cell-based; settings: 3 and 9 hr at 37° C., A412 of supernatant, gramicidin 30 μg/ml
Protocol: Human red blood cells were freshly harvested, washed with 0.85% saline solution with 5 mM EDTA and resuspended in the same solution to an A412 of 0.6. The hemolysis assay was performed in 1.5 ml Eppendorf tubes with the addition of either 5 in DMSO, saline, gramicidin (final concentration 30 μg/ml), or DMSO (5% final), for both 3 and 9 hr at 37° C. with occasion gentle mixing. The mixtures were then centrifuged and the A412 of the supernatant measured.

| Molecule | inhibition of in vitro translation [3] | also measured |
| --- | --- | --- |
| CCC1NC(=O)C(NC(=O)c2ncccc2O)CNC(=O)C(c2ccccc2)NC(=O)C2CCCN2C(=O)C(Cc2ccccc2)NC(=O)C2CCCN2C1=O (stereo not drawn) [Compound 8] ({Picolinoyl(3-OH)}-[Dap][Abu]PFP[Phg]; lactam 1-C; configuration not given here) | – | Zone of Inhibition [1]: no antibacterial activity and n.i.; Zone of Inhibition [2]: n.i. |
| O=C(N[C@H](CO)[C@H](O)c1ccc([N+](=O)[O-])cc1)C(Cl)Cl [chloramphenicol] | did block | – |
| CCN(CC)CCS(=O)(=O)[C@@H]1CCN2C(=O)c3coc(n3)CC(=O)C[C@H](O)/C=C(C)/C=C/CNC(=O)/C=C/[C@@H](C)[C@@H](C(C)C)OC(=O)[C@@H]12 [dalfopristin] | did block | – |
| CC[C@H]1OC(=O)[C@H](C)[C@@H](O[C@H]2C[C@@](C)(OC)[C@@H](O)[C@H](C)O2)[C@H](C)[C@@H](O[C@@H]2O[C@H](C)C[C@H](N(C)C)[C@H]2O)[C@](C)(O)C[C@@H](C)C(=O)[C@H](C)[C@@H](O)[C@]1(C)O [erythromycin] | did block | – |
| gramicidin S | – | hemolytic activity [4]: lysed cells rapidly |
